Experimental data published in paper PMC3144732, “Rho-Rho kinase pathway in the actomyosin contraction and cell-matrix adhesion in immortalized human trabecular meshwork cells” (Molecular Vision, 2011).
“Also recorded” adds a separate entry of the source.

Columns and labels:
[1] = system: MYPT1 phosphorylation at Thr696; experiment: Western blot of MYPT1 phosphorylation at Thr696 in GTM3 cells; format: cell-based, human; conditions: 1 h, serum-rich medium; for IC50: GTM3 cells, densitometry of western blot, read-out: IC50 for dephosphorylation of MYPT1 at Thr696
Protocol: (§1) Cell cultures of an immortalized human glaucomatous trabecular meshwork (GTM3) cell line were grown at 37 °C in 5% CO2 in Dulbecco’s Minimum Essential Medium (DMEM + Glutamax) supplemented with 10% fetal bovine serum and 10 μg/ml of gentamicin (Invitrogen, Grand Island, NY) as previously described. Upon reaching confluence, cells were divided using 0.05% trypsin. Cells of passages 13 to 20 were used in our experiments.
(§2) Following treatment with the desired drugs/agents, cells were rinsed in PBS and solubilized in 300 µl of 2× Laemmli sample buffer. The lysate was sonicated briefly and boiled for 5 min. Equal amounts of protein (30 μg) were loaded in 8% or 12% SDS–PAGE gels. Following electrophoresis, proteins were transferred to a nitrocellulose membrane (Biorad, Hercules, CA), blocked with 5% fat-free milk for 1 h, and incubated with specific phospho-MYPT1 or phospho-MLC antibodies overnight. The membranes were next incubated with the appropriate secondary antibodies for 1 h. The blots were finally washed and developed using an enhanced chemiluminescence kit (Pierce, Rockford, IL) according to the manufacturer’s instructions.
(§3) A one-way ANOVA was used to compare mean values for different treatments with Bonferroni’s post-test analysis (Prism 5.0 for Windows; GraphPad Software, Inc., San Diego, CA). Results are expressed as mean±SEM. For analysis of ECIS (electrical cell-substrate impedance sensing) data, normalized numerical values from individual experiments were pooled and expressed as mean±SEM. A p value of less than 0.05 was considered statistically significant. “n” denotes the number of independent experiments performed. […] The calculations assume that log [drug] versus response follow a sigmoidal shape and were performed with Prism 5.0. The reported values of R indicate goodness of fit.

MLC phosphorylation = experiment: Western blot of MLC phosphorylation (ppMLC) in GTM3 cells; format: cell-based, human; conditions: 1 h, serum-rich medium, densitometry of western blot, read-out: IC50 for dephosphorylation of MLC
Protocol: as §1
as §2, with “The blots were finally washed and developed using an enhanced chemiluminescence kit (Pierce, Rockford, IL) according to the manufacturer’s instructions.” left out
A one-way ANOVA was used to compare mean values for different treatments with Bonferroni’s post-test analysis (Prism 5.0 for Windows; GraphPad Software, Inc., San Diego, CA). Results are expressed as mean±SEM. For analysis of ECIS (electrical cell-substrate impedance sensing) data, normalized numerical values from individual experiments were pooled and expressed as mean±SEM. […]

[2] = system: GTM3 cells (cell-matrix adhesion); experiment: Electrical cell-substrate impedance sensing (ECIS), cell-matrix adhesion; format: cell-based, human
Protocol: Cells were seeded on gold electrode-plated culture plates (8W10E+) and placed in an incubator at 37 °C with humidified air and 5% CO2. The attachment and spreading of the cells on electrodes was monitored continuously at 4 kHz until the observed electrical resistance reached a plateau and stabilized. This usually occurred within 20–24 h after inoculation. Impedance to current flow was measured at different frequencies (25 Hz to 60 kHz) periodically before and after inoculation. After reaching the steady-state of electric-cell substrate resistance, cells were exposed to the ROCK inhibitors, and the impedance was assessed at different frequencies every 30 min. The change in the measured resistance normalized to that of the bare electrode was taken as a measure of cell-matrix adhesion as discussed further below.
ECIS involves the measurement of impedance to a small AC current applied across cells grown to confluence on planar gold microelectrodes. The measurement is non-invasive, and off-the-shelf instruments such as ECIS^TM 1600R (Applied Biophysics, Inc., Troy, NY) make use of a lock-in amplifier to measure small changes in electrical impedance at a high-temporal resolution. We have previously employed ECIS to assess the integrity of the apical junctional complex of the corneal endothelial monolayers. For epithelial monolayers, such as the corneal endothelium, the resistive component of the measured impedance implies trans-endothelial electrical resistance for current flow between the cells when confluent on the electrode. However, with non-epithelial cells, such as fibroblasts, measured impedance arises mainly out of resistance to current flow across the cell substrate (i.e., cell-matrix adhesion). In this study, we examined the dynamics of such cell-matrix resistance (i.e., resistive component of the measured impedance) with TM cells. […] This increase can be attributed to the attachment of cells to the substrate (gold electrode), which leads to an increased resistance to current flow. […]

GTM3 cells = experiment: Cell morphology (DIC), stress fibers and focal adhesions (F-actin, paxillin staining); format: cell-based, human; conditions: 1 h, serum-rich medium
Protocol: Cells were first treated for the indicated time period in the serum-rich medium described earlier. Following a brief rinse with PBS, cells were fixed with 4% paraformaldehyde for 10 min and then permeabilized with 0.1% Triton-X for 10 min. For phosphorylated MLC staining, cells were blocked with 10% goat serum + 3% BSA, and, for vinculin and paxillin staining, the cells were blocked with 10% FBS for 1 h. Cells were incubated in primary antibody overnight, followed by secondary antibody incubation for 1 h. Double staining for actin was performed by incubating cells in Texas-red conjugated phalloidin for 20 min. After extensive washing, coverslips were mounted using ProLong AntiFade (Molecular Probes, Eugene, OR). Images were acquired using a Leica SP5 (Leica Microsystems, Bannockburn, IL) confocal microscope. After similar treatments, DIC images of cells fixed on coverslips were also obtained using a Nikon E800 (Nikon Instruments, Melville, NY) microscope.

[3] = system: GTM3 cells (actomyosin contraction); experiment: Collagen gel contraction assay with GTM3 cells; format: cell-based, human; conditions: for increase in the gel area (relaxation) compared with the control: 10 μM
Protocol: A collagen gel contraction assay was performed as previously described. The wells of 24-well culture plates were coated with 1% BSA at 37 °C for 1 h. Glaucomatous trabecular meshwork cells were trypsinized and resuspended in culture medium at a density of 1×10^7 cells/ml. Rat-tail collagen Type I (BD Biosciences, San Jose, CA), 10× DMEM (Sigma, St. Louis, MO), reconstitution buffer (pH 7.3), TM cell suspension, and distilled water were mixed on ice to obtain a final concentration of 1.9 mg/ml of collagen and a final cell density of 2×10^5 cells/ml. The resultant mixture (0.5 ml) was added to each well of the BSA-coated culture clusters, and collagen gel formation was induced by incubation at 37 °C for 90 min. Serum-rich or serum-free DMEM (0.5 ml), without or with the drugs, was then added on top of the gels. After 1 h, the gels were freed from the walls of the culture wells. They were subsequently imaged every 24 h for 2 days. The area was calculated using NIH ImageJ software.

[4] = system: MYPT1 phosphorylation at Thr853; experiment: Western blot of MYPT1 phosphorylation at Thr853 in GTM3 cells; format: cell-based, human; conditions: 1 h, serum-rich medium; for effect on MYPT1 phosphorylation at Thr853: 5 μM; for IC50: GTM3 cells, densitometry of western blot, read-out: IC50 for dephosphorylation of MYPT1 at Thr853
Protocol: as §1, §2, §3

normal HTM cells = conditions: 10 μM; cited from earlier work
[5] = system: FAK (Tyr397) phosphorylation; experiment: Serum-induced tyrosine phosphorylation of FAK (Tyr397), western blot; format: cell-based, human; conditions: 1 μM pretreatment, 10% serum added to serum-starved cells
[6] = system: paxillin (Tyr118) phosphorylation; experiment: Serum-induced tyrosine phosphorylation of paxillin (Tyr118), western blot; format: cell-based, human; conditions: 1 μM pretreatment, 10% serum added to serum-starved cells
[7] = rabbits; cited from earlier work

C[C@@H](N)[C@H]1CC[C@H](C(=O)Nc2ccncc2)CC1 [Y-27632]
effect on MYPT1 phosphorylation at Thr696 ([1]; 5 μM): comparatively smaller reduction; also recorded: only slightly reduced; also recorded: only a marginal decrease
IC50 [1]: 2270 nM
IC50 (MLC phosphorylation): 1060 nM
change in electrical cell-substrate resistance ([2]; 5 μM, up to 2 h): significant decrease in the peak resistance
change in cell shape (DIC images) (GTM3 cells; 5 μM): apparent shrinkage, with cells assuming a stellate appearance
effect on stress fibers and focal adhesions (GTM3 cells; 5 μM): complete loss of stress fibers and focal adhesions
increase in the gel area (relaxation) compared with the control ([3]; 48 h, 10% serum): 50%
effect on MYPT1 phosphorylation at Thr853 [4]: complete dephosphorylation
IC50 [4]: 658 nM
gel contraction allowed (normal HTM cells): 30%

C[C@@H](N)c1ccc(C(=O)Nc2ccnc3[nH]ccc23)cc1 [Y-39983]
effect on serum-induced tyrosine phosphorylation of FAK at Tyr397 [5]: opposed
IC50 [1]: 177 nM
IC50 (MLC phosphorylation): 14 nM
change in electrical cell-substrate resistance ([2]; 1 μM, up to 2 h): significant decrease in resistance; also recorded: rapid and more pronounced
effect on serum-induced phosphorylation of paxillin at Tyr118 [6]: opposed
change in cell shape (DIC images) (GTM3 cells; 1 μM): apparent shrinkage, with cells assuming a stellate appearance
effect on stress fibers and focal adhesions (GTM3 cells; 1 μM): complete loss of stress fibers and focal adhesions
effect on stress fibers and focal adhesions (GTM3 cells; 5 μM): loss of stress fibers
increase in the gel area compared with the control ([3]; 1 μM, 48 h, 10% serum): 86±5%
decrease in the contraction of the collagen gels ([3]; 5 μM): 100%
effect on MYPT1 phosphorylation at Thr853 [4]: complete dephosphorylation
IC50 [4]: 15 nM
decrease in IOP compared to Y-27632 [7]: 10 fold

Cc1ccc2c(c1)C(=O)C1(O)CCN(c3ccccc3)C1=N2 (stereo not shown) [blebbistatin]
increase in the gel area (relaxation) compared with the control ([3]; 48 h, 10% serum): 102±1.3%

C=C1[C@@H](C)[C@H]2[C@H](Cc3ccccc3)NC(=O)[C@]23[C@H](OC(C)=O)/C=C/[C@@](C)(O)C(=O)[C@@H](C)C/C=C/[C@H]3[C@@H]1O [cytochalasin D]
change in electrical cell-substrate resistance ([2]; 0.125 mg/ml): significant decrease in the measured resistance; also recorded: substantial decrease in the resistance
